This note sets out measurements from patent publication US20250326713A1, “INHIBITORS OF MsbA AS ANTIBIOTICS, PHARMACEUTICAL COMPOSITIONS, AND USES THEREOF” (priority 2022, published 2025).

In brackets after ≈: the same amount, converted by molar mass. Where only a bound is given, the exact number is not on record here.

One test relates to various strains of bacteria. As to the kind of experiment: Antimicrobial potency: bacterial growth inhibition by OD600 (Antibacterial assay 1, MITC95). It counts as cell-based, A. baumannii. As to conditions: Acinetobacter baumannii, 20 h, lowest concentration giving >95% growth inhibition, CAMHB, 18-22 h. The procedure:
The concentrations of compounds required to inhibit the growth of various strains of bacteria were determined in an assay that assessed bacterial growth by measuring optical density at 600 nm (OD600). Test articles were dissolved in 100% DMSO and serially diluted two-fold from their maximal concentration in 100% DMSO. Forty-nine μl of bacterial inoculum (at approx. 2×10^5 cfu/mL in CAMHB) were put into wells of an assay plate. One μl of compound or DMSO was transferred from the source plate to the assay plate. The completed assay plates were then incubated at 35+2degC for 18-22 h. Bacterial growth was measured by reading OD600 on a spectrophotometer. Data analysis calculates the lowest concentration of compound which results in >95% growth inhibition (minimum inhibitory threshold concentration 95%, MITC95).
The MIC is the least concentration at which growth counts as inhibited. The compound `O=C(O)Cc1cc(CN2CC(Oc3ccc(NS(=O)(=O)c4cnn(-c5ccc(Cl)cc5)c4)c(CC(=O)O)c3)C2)ccc1NS(=O)(=O)c1cnn(-c2ccc(Cl)cc2)c1` [Compound 1, 2-(5-((1-(3-(carboxymethyl)-4-(1-(4-chlorophenyl)-1H-pyrazole-4-sulfonamido)benzyl)azetidin-3-yl)oxy)-2-(1-(4-chlorophenyl)-1H-pyrazole-4-sulfonamido)phenyl) acetic acid] gave an MIC of 0.277 µM (≈ 0.24 µg/mL).
The compound `O=C(O)Cc1cc(CN2CC(Oc3ccc(NS(=O)(=O)c4cnn(-c5ccc(Cl)cc5)c4)c(C(=O)O)c3)C2)ccc1NS(=O)(=O)c1cnn(-c2ccc(Cl)cc2)c1` [Compound 2, 5-((1-(3-(carboxymethyl)-4-((1-(4-chlorophenyl)-1H-pyrazole)-4-sulfonamido)-benzyl)azetidin-3-yl)oxy)-2-((1-(4-chlorophenyl)-1H-pyrazole)-4-sulfonamido)benzoic acid] gave an MIC of 0.0692 µM (≈ 0.059 µg/mL).
Turning to `O=C(O)c1cc(OC2CN(Cc3ccc(NS(=O)(=O)c4cnn(-c5ccc(F)cc5)c4)c(S(=O)(=O)O)c3)C2)ccc1NS(=O)(=O)c1cnn(-c2ccc(F)cc2)c1` [Compound 3, 2-((1-(4-fluorophenyl)-1H-pyrazole)-4-sulfonamido)-5-((1-(4-((1-(4-fluorophenyl)-1H-pyrazole)-4-sulfonamido)-3-sulfobenzyl)azetidin-3-yl)oxy)benzoic acid], the MIC turned out to be 0.277 µM (≈ 0.233 µg/mL).
`O=C(O)c1cc(COC2CC(OCc3ccc(NS(=O)(=O)c4cnn(-c5ccc(F)cc5)c4)c(C(=O)O)c3)C2)ccc1NS(=O)(=O)c1cnn(-c2ccc(F)cc2)c1` (stereo not drawn) [Compound 12, trans-5-((3-((3-carboxy-4-((1-(4-fluorophenyl)-1H-pyrazole)-4-sulfonamido)benzyl)oxy)-cyclobutoxy)methyl)-2-((1-(4-fluorophenyl)-1H-pyrazole)-4-sulfonamido)benzoic acid] showed an MIC of 0.138 µM (≈ 0.115 µg/mL).
Turning to `O=C(O)c1cc(COC2CC(OCc3ccc(NS(=O)(=O)c4ccc(-c5ccc(F)cc5)cc4)c(C(=O)O)c3)C2)ccc1NS(=O)(=O)c1ccc(-c2ccc(F)cc2)cc1` (stereo not drawn) [Compound 14], the MIC came out at 0.0245 µM (≈ 0.0209 µg/mL).
On the same count and under the same terms, the same measure for `O=C(O)c1cc(COC2CC(OCc3ccc(NS(=O)(=O)c4ccc(-c5ccc(F)cc5)cc4)c(C(=O)O)c3)C2)ccc1NS(=O)(=O)CCc1ccc(Cl)cc1` (stereo not drawn) [Compound 16]: less than 0.0488 µM; for `O=C(O)c1cc(COC2CC(OCc3ccc(NS(=O)(=O)c4ccc(-c5ccc(Cl)cc5)cc4)c(C(=O)O)c3)C2)ccc1NS(=O)(=O)CCc1ccc(Cl)cc1` (stereo not drawn) [Compound 17]: less than 0.0488 µM.
Same read-out and setting: then `O=C(O)c1cc(COC2CC(OCc3ccc(NS(=O)(=O)c4ccc(-c5ccc(Cl)cc5)cc4)c(C(=O)O)c3)C2)ccc1NS(=O)(=O)CCc1ccc(F)cc1` (stereo not drawn) [Compound 18], with 0.0122 µM (≈ 0.01 µg/mL); and `O=C(O)c1cc(OCC2CCC(COc3ccc(NS(=O)(=O)c4cnn(-c5ccc(Cl)cc5)c4)c(C(=O)O)c3)O2)ccc1NS(=O)(=O)c1cnn(-c2ccc(Cl)cc2)c1` (stereo not drawn) [Compound 19, 5-((5-((3-Carboxy-4-((1-(4-chlorophenyl)-1H-pyrazole)-4-sulfonamido)-phenoxy)methyl)tetrahydrofuran-2-yl)methoxy)-2-((1-(4-chlorophenyl)-1H-pyrazole)-4-sulfonamido)benzoic acid], with 0.0245 µM (≈ 0.0217 µg/mL).
Still for that read-out and setting: then `O=C(O)c1cc(OC[C@H]2CC[C@@H](COc3ccc(NS(=O)(=O)c4cnn(-c5ccc(F)cc5)n4)c(C(=O)O)c3)O2)ccc1NS(=O)(=O)c1cnn(-c2ccc(F)cc2)n1` [Compound 20], with 0.0245 µM (≈ 0.0209 µg/mL).
In the case of `O=C(O)c1cc(OC[C@H]2CC[C@@H](COc3ccc(NS(=O)(=O)CCc4ccc(Cl)cc4)c(C(=O)O)c3)O2)ccc1NS(=O)(=O)CCc1ccc(Cl)cc1` [Compound 21], the MIC is 0.0489 µM (≈ 0.0395 µg/mL).
In the case of `O=C(O)c1cc(OC[C@H]2CC[C@@H](COc3ccc(NS(=O)(=O)c4ccc(-c5ccc(F)cc5)cc4)c(C(=O)O)c3)O2)ccc1NS(=O)(=O)c1ccc(-c2ccc(F)cc2)cc1` [Compound 22], the MIC is 0.0489 µM (≈ 0.0426 µg/mL).
On the same count and under the same terms, the same measure for `O=C(O)c1cc(OC[C@H]2CC[C@@H](COc3ccc(NS(=O)(=O)c4ccc(-c5ccc(Cl)cc5)s4)c(C(=O)O)c3)O2)ccc1NS(=O)(=O)c1ccc(-c2ccc(Cl)cc2)s1` [Compound 23]: 0.0346 µM (≈ 0.0317 µg/mL); for `O=C(O)c1cc(OC[C@H]2C[C@H](Oc3ccc(NS(=O)(=O)c4cnn(-c5ccc(Cl)cc5)c4)c(C(=O)O)c3)CN2)ccc1NS(=O)(=O)c1cnn(-c2ccc(Cl)cc2)c1` [Compound 24, trans-5-((5-((3-carboxy-4-((1-(4-chlorophenyl)-1H-pyrazole)-4-sulfonamido)-phenoxy)methyl)pyrrolidin-3-yl)oxy)-2-((1-(4-chlorophenyl)-1H-pyrazole)-4-sulfonamido)benzoic acid]: 0.277 µM (≈ 0.241 µg/mL); for `O=C(O)c1cc(CNC2CC(CNc3ccc(NS(=O)(=O)c4cnn(-c5ccc(F)cc5)c4)c(C(=O)O)c3)C2)ccc1NS(=O)(=O)c1cnn(-c2ccc(F)cc2)c1` (stereo not drawn) [Compound 25, cis-5-(((3-((3-carboxy-4-((1-(4-fluorophenyl)-1H-pyrazole)-4-sulfonamido)benzyl)amino)cyclobutyl)methyl)amino)-2-((1-(4-fluorophenyl)-1H-pyrazole)-4-sulfonamido)benzoic acid]: 0.155 µM (≈ 0.129 µg/mL).
The same measure, in the same setting: then `O=C(O)c1cc(NCC2CC(NCc3ccc(NS(=O)(=O)c4cnc(-c5ccc(Cl)cc5)s4)c(C(=O)O)c3)C2)ccc1NS(=O)(=O)c1cnn(-c2ccc(F)cc2)c1` (stereo not drawn) [Compound 26], with 0.0489 µM (≈ 0.0424 µg/mL); and `O=C(O)c1cc(CNC2CC(CNc3ccc(NS(=O)(=O)c4cnn(-c5ccc(F)cc5)c4)c(C(=O)O)c3)C2)ccc1NS(=O)(=O)CCc1ccc(Cl)cc1` (stereo not drawn) [Compound 27], with 0.391 µM (≈ 0.317 µg/mL).
Take `O=C(O)c1cc(NCC2CC(NCc3ccc(NS(=O)(=O)N4CC(Oc5ccc(F)cc5)C4)c(C(=O)O)c3)C2)ccc1NS(=O)(=O)c1cnn(-c2ccc(F)cc2)c1` (stereo not drawn) [Compound 28]: the MIC came to 0.196 µM (≈ 0.164 µg/mL).
Same read-out and setting: the same measure for `O=C(O)c1cc(CNC2CC(CNc3ccc(NS(=O)(=O)c4cnn(-c5ccc(F)cc5)c4)c(C(=O)O)c3)C2)ccc1NS(=O)(=O)c1cnn(-c2ccc(Cl)cc2)c1` (stereo not drawn) [Compound 29]: 0.0489 µM (≈ 0.0415 µg/mL); for `O=C(O)c1cc(CNC2CC(CNc3ccc(NS(=O)(=O)c4cnn(-c5ccc(F)cc5)c4)c(C(=O)O)c3)C2)ccc1NS(=O)(=O)c1ccc(-c2ccc(Cl)cc2)cc1` (stereo not drawn) [Compound 30]: 0.277 µM (≈ 0.238 µg/mL); for `O=C(O)c1cc(NCC2CC(NCc3ccc(NS(=O)(=O)c4cnn(-c5ccc(F)cc5)n4)c(C(=O)O)c3)C2)ccc1NS(=O)(=O)c1cnn(-c2ccc(F)cc2)c1` (stereo not drawn) [Compound 31]: 0.196 µM (≈ 0.163 µg/mL).
The same measure, in the same setting: then `O=C(O)c1cc(CNC2CC(CNc3ccc(NS(=O)(=O)c4cnn(-c5ccc(Cl)cc5)c4)c(C(=O)O)c3)C2)ccc1NS(=O)(=O)c1cnn(-c2ccc(Cl)cc2)c1` (stereo not drawn) [Compound 32], with 0.0245 µM (≈ 0.0212 µg/mL); and `Cn1nc(-c2ccc(F)cc2)cc1S(=O)(=O)Nc1ccc(CNC2CC(CNc3ccc(NS(=O)(=O)c4cnn(-c5ccc(F)cc5)c4)c(C(=O)O)c3)C2)cc1C(=O)O` (stereo not drawn) [Compound 33], with 0.0489 µM (≈ 0.0414 µg/mL); and `Cn1nc(-c2ccc(F)cc2)cc1S(=O)(=O)Nc1ccc(CNC2CC(CNc3ccc(NS(=O)(=O)c4cnn(-c5ccc(Cl)cc5)c4)c(C(=O)O)c3)C2)cc1C(=O)O` (stereo not drawn) [Compound 34], with 0.0489 µM (≈ 0.0422 µg/mL).
On the same count and under the same terms, the same measure for `O=C(O)c1cc(CNC2CC(CNc3ccc(NS(=O)(=O)c4cnn(-c5ccc(Cl)cc5)c4)c(C(=O)O)c3)C2)ccc1NS(=O)(=O)c1cnn(-c2ccc(F)cc2)c1` (stereo not drawn) [Compound 35]: 0.0489 µM (≈ 0.0415 µg/mL).
In turn, `O=C(O)c1cc(NCC2CC(NCc3ccc(NS(=O)(=O)N4CCOC(c5ccc(F)cc5)C4)c(C(=O)O)c3)C2)ccc1NS(=O)(=O)c1cnn(-c2ccc(F)cc2)c1` (stereo not drawn) [Compound 36] registered an MIC of 0.0489 µM (≈ 0.0417 µg/mL).
The same measure, in the same setting: then `O=C(O)c1cc(COC2CN(Cc3ccc(NS(=O)(=O)c4cnn(-c5ccc(Cl)cc5)c4)c(C(=O)O)c3)C2)ccc1NS(=O)(=O)c1cnn(-c2ccc(Cl)cc2)c1` [Compound 37, 5-(((1-(3-carboxy-4-(1-(4-chlorophenyl)-1H-pyrazole-4-sulfonamido)benzyl)azetidin-3-yl)oxy)methyl)-2-(1-(4-chlorophenyl)-1H-pyrazole-4-sulfonamido)benzoic acid], with 0.0692 µM (≈ 0.059 µg/mL).
On the same count and under the same terms, then `O=C(O)c1cc(COC2CN(Cc3ccc(NS(=O)(=O)c4cnn(-c5ccc(F)cc5)c4)c(C(=O)O)c3)C2)ccc1NS(=O)(=O)c1cnn(-c2ccc(F)cc2)c1` [Compound 38], with 0.391 µM (≈ 0.321 µg/mL); and `O=C(O)c1cc(CN2CC(Oc3ccc(NS(=O)(=O)c4cnn(-c5ccc(F)cc5)c4)c(C(=O)O)c3)C2)ccc1NS(=O)(=O)CCCCCCc1ccc(Cl)cc1` [Compound 40], with 0.0489 µM (≈ 0.0411 µg/mL).
On the same count and under the same terms, then `O=C(O)c1cc(CN2CC(Oc3ccc(NS(=O)(=O)c4cnn(-c5ccc(Cl)cc5)c4)c(C(=O)O)c3)C2)ccc1NS(=O)(=O)CCCCc1ccc(Cl)cc1` [Compound 41], with 0.0122 µM (≈ 0.0101 µg/mL); and `O=C(O)c1cc(CN2CC(Oc3ccc(NS(=O)(=O)c4cnn(-c5ccc(Cl)cc5)c4)c(C(=O)O)c3)C2)ccc1NS(=O)(=O)CCCc1ccc(F)cc1` [Compound 42], with 0.0489 µM (≈ 0.039 µg/mL).
`O=C(O)c1cc(CN2CC(Oc3ccc(NS(=O)(=O)c4cnn(-c5ccc(F)cc5)c4)c(C(=O)O)c3)C2)ccc1NS(=O)(=O)CCCc1ccc(Cl)cc1` [Compound 43] yielded an MIC of 0.0489 µM (≈ 0.039 µg/mL).

Still in this test, the particulars now being: lowest concentration giving >95% growth inhibition, CAMHB, 18-22 h.
On to `O=C(O)c1cc(COC2CC(OCc3ccc(NS(=O)(=O)c4cnn(-c5ccc(F)cc5)c4)c(C(=O)O)c3)C2)ccc1NS(=O)(=O)c1cnn(-c2ccc(F)cc2)c1` (stereo not drawn) [Compound 13], for which the minimum inhibitory concentration (MIC) turned out to be 0.196 µM (≈ 0.164 µg/mL).
